Source: patent publication US12201602B2, “Medicament comprising combination of sepetaprost and Rho-associated coiled-coil containing protein kinase inhibitor” (SANTEN PHARMACEUTICAL CO., LTD., priority 2017, dated 2025)

What was measured:
normal pressure monkeys [1] = assay: Intraocular pressure lowering effect of sepetaprost and netarsudil, alone and concomitantly (Example 2); type: in vivo, cynomolgus monkey; conditions: eye drop 20 μL/eye, sepetaprost 0.0003% (w/v), netarsudil 0.01% (w/v), average of 8 monkeys
Method: In order to examine usefulness of the combination of sepetaprost and a Rho-associated coiled-coil containing protein kinase inhibitor(s), the effect of lowering an intraocular pressure when sepetaprost and netarsudil which is a Rho-associated coiled-coil containing protein kinase inhibitor were administered concomitantly to experimental animals (normal pressure monkeys) was investigated. Sepetaprost was dissolved in purified water containing a solubilizing agent, and then, a sepetaprost solution with a desired concentration was prepared by using a commonly used method. […] An effect of lowering an intraocular pressure when sepetaprost and netarsudil were administered concomitantly was investigated. As a comparative subject, an effect of lowering an intraocular pressure when sepetaprost or netarsudil was administered alone was also investigated. As a control, the base of the sepetaprost solution and the base of the netarsudil solution were administered. […] Also, the intraocular pressure was measured each three times, and the average value was calculated. With respect to the changed value of the intraocular pressure (mmHg), a difference from the value of the intraocular pressure before administration at each measurement time point was calculated. […] The test was carried out in the same manner as the above-mentioned concomitant administration test except for changing the netarsudil solution to the base of the netarsudil solution. The test was carried out in the same manner as the above-mentioned concomitant administration test except for changing the sepetaprost solution to the base of the sepetaprost solution. The test was carried out in the same manner as the above-mentioned concomitant administration test except for changing the sepetaprost solution to the base of the sepetaprost solution and changing the netarsudil solution to the base of the netarsudil solution. The changes in the lowering of the intraocular pressure with the lapse of time for each administered group are shown in FIG. 2 and Table 2. The change in the intraocular pressure values are shown by an average value ±SEM of the difference from the value (0 hour) before administration of eight monkeys in each group with regard to each measurement time point of each individual. Comparison of the control group with the sepetaprost group, the netarsudil group, or the sepetaprost/netarsudil concomitant use group, and comparison of the sepetaprost/netarsudil concomitant use group with the sepetaprost group or the netarsudil group was carried out by, after carrying out the Bartlett test, in the case where dispersion is uniform, using the Dunnett test, or in the case of ununiform, using the Steel test. The significance level with respect to the control group was shown as *: p<0.05 and **: p<0.01 in the Steel test, and *: […] in the Dunnett test.

normal pressure monkeys [2] = assay: Intraocular pressure lowering effect of sepetaprost and ripasudil, alone and concomitantly (Example 1); type: in vivo, cynomolgus monkey; conditions: eye drop 20 μL/eye, sepetaprost 0.0003% (w/v), ripasudil 0.4% (w/v), average of 8 monkeys
Method: In order to examine usefulness of the combination of sepetaprost and a Rho-associated coiled-coil containing protein kinase inhibitor(s), the effect of lowering an intraocular pressure when sepetaprost and ripasudil which is a Rho-associated coiled-coil containing protein kinase inhibitor were administered concomitantly to experimental animals (normal pressure monkeys) was investigated. Sepetaprost was dissolved in purified water containing a solubilizing agent, and then, a sepetaprost solution with a desired concentration was prepared by using a commonly used method. Commercially available ripasudil eye drop (Kowa Company, Ltd., […] (Registered Trademark) eye drops 0.4%) was used as it was. An effect of lowering an intraocular pressure when sepetaprost and ripasudil were administered concomitantly was investigated. As a comparative subject, an effect of lowering an intraocular pressure when sepetaprost or ripasudil was administered alone was also investigated. As a control, the base of the sepetaprost solution and physiological saline solution were administered. • Sepetaprost solution: 0.0003% (w/v) sepetaprost solution (volume of eye dropped: 20 μL/eye) • Ripasudil solution: 0.4% (w/v) ripasudil solution (trade name: […] Also, the intraocular pressure was measured each three times, and the average value was calculated. With respect to the changed value of the intraocular pressure (mmHg), a difference from the value of the intraocular pressure before administration at each measurement time point was calculated. […] The test was carried out in the same manner as the above-mentioned concomitant administration test except for changing the ripasudil solution to the physiological saline solution. The test was carried out in the same manner as the above-mentioned concomitant administration test except for changing the sepetaprost solution to the base of the sepetaprost solution. The test was carried out in the same manner as the above-mentioned concomitant administration test except for changing the sepetaprost solution to the base of the sepetaprost solution and changing the ripasudil solution to the physiological saline solution. The changes in the lowering of the intraocular pressure with the lapse of time for each administered group are shown in FIG. 1 and Table 1. The changes in the intraocular pressure values are shown by an average value ±SEM of the difference from the value (0 hour) before administration of eight monkeys in each group with regard to each measurement time point of each individual. Comparison of the control group with the sepetaprost group, the ripasudil group, or the sepetaprost/ripasudil concomitant use group, and comparison of the sepetaprost/ripasudil concomitant use group with the sepetaprost group or the ripasudil group was carried out by, after carrying out the Bartlett test, in the case where dispersion is uniform, using the Dunnett test, or in the case of ununiform, using the Steel test. The significance level with respect to the control group was shown as ##: p<0.01 in the Dunnett test, and *: p<0.05 and **: p<0.01 in the Steel test.

Row | SMILES | changed value of the intraocular pressure (difference from value before administration) (normal pressure monkeys [1]; 2 hours after dropping) | changed value of the intraocular pressure (difference from value before administration) (normal pressure monkeys [1]; 4 hours after dropping) | changed value of the intraocular pressure (difference from value before administration) (normal pressure monkeys [1]; 6 hours after dropping) | changed value of the intraocular pressure (difference from value before administration) (normal pressure monkeys [1]; 8 hours after dropping) | changed value of the intraocular pressure (difference from value before administration) (normal pressure monkeys [1]; 24 hours after dropping) | changed value of the intraocular pressure (difference from value before administration) (normal pressure monkeys [2]; 2 hours after dropping) | changed value of the intraocular pressure (difference from value before administration) (normal pressure monkeys [2]; 4 hours after dropping) | changed value of the intraocular pressure (difference from value before administration) (normal pressure monkeys [2]; 6 hours after dropping) | changed value of the intraocular pressure (difference from value before administration) (normal pressure monkeys [2]; 8 hours after dropping) | changed value of the intraocular pressure (difference from value before administration) (normal pressure monkeys [2]; 24 hours after dropping)
1 | Cc1ccc(C(=O)OCc2ccc([C@@H](CN)C(=O)Nc3ccc4cnccc4c3)cc2)c(C)c1 [Netarsudil, [4-[(1S)-1-(aminomethyl)-2-(isoquinolin-6-ylamino)-2-oxoethyl]phenyl]methyl 2,4-dimethylbenzoate] | −0.4 mmHg | −2.2 mmHg | −2.1 mmHg | −2.3 mmHg | −0.6 mmHg | – | – | – | – | –
2 | CC(C)OC(=O)CCC[C@H]1CC[C@@H]2[C@@H](/C=C/[C@@H](O)COc3cc(F)ccc3F)[C@H](O)C[C@@H]2OC1 [Sepetaprost, 2-propanyl 4-{(3S, 5aR, 6R, 7R, 8aS)-6-[(1E, 3R)-4-(2,5-difluorophenoxy)-3-hydroxy-1-buten-1-yl]-7-hydroxyoctahydro-2H-cyclopenta[b]oxepin-3-yl}butanoate] | −0.2 mmHg | −1.6 mmHg | −2.2 mmHg | −2.0 mmHg | −1.1 mmHg | −0.1 mmHg | −0.9 mmHg | −1.8 mmHg | −1.9 mmHg | −0.6 mmHg
3 | C[C@H]1CNCCCN1S(=O)(=O)c1cccc2cncc(F)c12 [Ripasudil, (S)-(−)-1-(4-fluoro-5-isoquinolinesulfonyl)-2-methyl-1,4-homopiperazine] | – | – | – | – | – | −2.4 mmHg | −1.8 mmHg | −1.6 mmHg | −1.5 mmHg | −0.4 mmHg
